Test results as given in US20230085307A1, “PYRIDAZINONE COMPOUND AND HERBICIDE” (NISSAN CHEMICAL CORPORATION, priority 2019, published 2023).

Legend:
[1] = test system: late watergrass; test: Test Example 2: herbicidal activity, application during weed generation under submerged conditions (Table 17, symbol A); assay type: in vivo, late watergrass (Echinochloa oryzicola); conditions: AAH 320 g/ha; application during weed generation, submerged conditions
How it was run: (§1)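 Wagner pot, alluvial soil, 4 cm flood; mixed sowing of all species; greenhouse 25° C.–30° C. Emulsifiable formulation, water-diluted to predetermined dose, applied to paddy water at 1–2 leaf stage. Effect rated at 3 wk using the earlier test's scoring criteria.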

[2] = test system: Japanese bulrush; test: Test Example 2: herbicidal activity, application during weed generation under submerged conditions (Table 17, symbol B); assay type: in vivo, Japanese bulrush (Schoenoplectus juncoides); conditions: AAH 320 g/ha; application during weed generation, submerged conditions
How it was run: as §1

[3] = test system: barnyard grass; test: Test Example 3: herbicidal effect by foliage application, Wagner pot (Table 18, symbol H); assay type: in vivo, barnyard grass (Echinochloa crus-galli); conditions: 320 g/ha
How it was run: (§2)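 Plants were sown in alluvial soil held under 0.1–0.5 cm standing water and grown 14 days in a greenhouse at 25–30 °C. An emulsifiable formulation, water-diluted to the set dose, was then sprayed onto the foliage, and effects were scored three weeks later using previously defined criteria.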

[4] = test system: rice flat sedge; test: Test Example 3: herbicidal effect by foliage application, Wagner pot (Table 18, symbol E); assay type: in vivo, rice flat sedge (Cyperus iria); conditions: 320 g/ha
How it was run: as §2

[5] = test system: southern crabgrass; test: Test Example 4: herbicidal effect by soil treatment (Table 19, symbol F); assay type: in vivo, southern crabgrass (Digitaria ciliaris); conditions: for herbicidal effect rating, F: southern crabgrass: 320 g/ha
How it was run: (§3)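 Emulsion of test compound, water-diluted to predetermined amount, sprayed on soil after sowing (seed depth ~1.5 cm, sterilized diluvial soil). Greenhouse, 25–30° C. Effect graded at three weeks post-spray.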

[6] = test system: green foxtail; test: Test Example 4: herbicidal effect by soil treatment (Table 19, symbol G); assay type: in vivo, green foxtail (Setaria viridis); conditions: for herbicidal effect rating, G: green foxtail: 320 g/ha
How it was run: as §3

[7] = test system: barnyard grass; test: Test Example 4: herbicidal effect by soil treatment (Table 19, symbol H); assay type: in vivo, barnyard grass (Echinochloa crus-galli); conditions: for herbicidal effect rating, H: barnyard grass: 320 g/ha
How it was run: as §3

[8] = test system: wild oat; test: Test Example 4: herbicidal effect by soil treatment (Table 19, symbol I); assay type: in vivo, wild oat (Avena fatua); conditions: for herbicidal effect rating, I: wild oat: 320 g/ha
How it was run: as §3

[9] = test system: Italian ryegrass; test: Test Example 4: herbicidal effect by soil treatment (Table 19, symbol K); assay type: in vivo, Italian ryegrass (Lolium multiflorum); conditions: for herbicidal effect rating, K: Italian ryegrass: 320 g/ha
How it was run: as §3

[10] = test system: velvetleaf; test: Test Example 4: herbicidal effect by soil treatment (Table 19, symbol M); assay type: in vivo, velvetleaf (Abutilon theophrasti); conditions: for herbicidal effect rating, M: velvetleaf: 320 g/ha
How it was run: as §3

[11] = test system: redroot pigweed; test: Test Example 4: herbicidal effect by soil treatment (Table 19, symbol N); assay type: in vivo, redroot pigweed (Amaranthus retroflexus); conditions: for herbicidal effect rating, N: redroot pigweed: 320 g/ha
How it was run: as §3

[12] = test system: lambsquarters; test: Test Example 4: herbicidal effect by soil treatment (Table 19, symbol O); assay type: in vivo, lambsquarters (Chenopodium album); conditions: for herbicidal effect rating, O: lambsquarters: 320 g/ha
How it was run: as §3

[13] = test system: chickweed; test: Test Example 4: herbicidal effect by soil treatment (Table 19, symbol P); assay type: in vivo, common chickweed (Stellaria media); conditions: for herbicidal effect rating, P: chickweed: 320 g/ha
How it was run: as §3

[14] = test system: green foxtail; test: Test Example 5: herbicidal effect by foliage application, plastic box (Table 20, symbol G); assay type: in vivo, green foxtail (Setaria viridis); conditions: foliage application, 320 g/ha; for effect on green foxtail (G): 3 weeks after application
How it was run: (§4)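 Post-emergence foliar test in sterilized diluvial soil. Compound applied as water-diluted emulsion at a predetermined rate to 14-day-old plants; evaluation at three weeks.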

[15] = test system: wild oat; test: Test Example 5: herbicidal effect by foliage application, plastic box (Table 20, symbol I); assay type: in vivo, wild oat (Avena fatua); conditions: foliage application, 320 g/ha; for effect on wild oat (I): 3 weeks after application
How it was run: as §4

[16] = test system: blackgrass; test: Test Example 5: herbicidal effect by foliage application, plastic box (Table 20, symbol J); assay type: in vivo, blackgrass (Alopecurus myosuroides); conditions: foliage application, 320 g/ha
How it was run: as §4

[17] = test system: Italian ryegrass; test: Test Example 5: herbicidal effect by foliage application, plastic box (Table 20, symbol K); assay type: in vivo, Italian ryegrass (Lolium multiflorum); conditions: foliage application, 320 g/ha; for effect on Italian ryegrass (K): 3 weeks after application
How it was run: as §4

[18] = test system: windgrass; test: Test Example 5: herbicidal effect by foliage application, plastic box (Table 20, symbol L); assay type: in vivo, windgrass (Apera spica-venti); conditions: foliage application, 320 g/ha; for effect on windgrass (L): 3 weeks after application
How it was run: as §4

[19] = test system: velvetleaf; test: Test Example 5: herbicidal effect by foliage application, plastic box (Table 20, symbol M); assay type: in vivo, velvetleaf (Abutilon theophrasti); conditions: foliage application, 320 g/ha; for effect on velvetleaf (M): 3 weeks after application
How it was run: as §4

[20] = test system: persian speedwell; test: Test Example 5: herbicidal effect by foliage application, plastic box (Table 20, symbol R); assay type: in vivo, Persian speedwell (Veronica persica); conditions: foliage application, 320 g/ha; for effect on persian speedwell (R): 3 weeks after application
How it was run: as §4

[21] = test system: redroot pigweed; test: Test Example 5: herbicidal effect by foliage application, plastic box (Table 20, symbol N); assay type: in vivo, redroot pigweed (Amaranthus retroflexus); conditions: foliage application, 320 g/ha, evaluated three weeks after application
How it was run: as §4

[22] = test system: chickweed; test: Test Example 5: herbicidal effect by foliage application, plastic box (Table 20, symbol P); assay type: in vivo, common chickweed (Stellaria media); conditions: foliage application, 320 g/ha, evaluated three weeks after application
How it was run: as §4

[23] = evaluated three weeks after application

| SMILES | herbicidal effect rating, A: late watergrass [1] | herbicidal effect rating, B: Japanese bulrush [2] | herbicidal effect on H (barnyard grass), rating 0-5 [3] | herbicidal effect on E (rice flat sedge), rating 0-5 [4] | effect on green foxtail (G) [14] | effect on wild oat (I) [15] | effect on Italian ryegrass (K) [17] | effect on windgrass (L) [18] | effect on velvetleaf (M) [19] | effect on persian speedwell (R) [20] | herbicidal effect rating, F: southern crabgrass [5] | herbicidal effect rating, G: green foxtail [6] | herbicidal effect rating, H: barnyard grass [7] | herbicidal effect rating, I: wild oat [8] | herbicidal effect rating, K: Italian ryegrass [9] | herbicidal effect rating, M: velvetleaf [10] | herbicidal effect rating, N: redroot pigweed [11] | herbicidal effect rating, O: lambsquarters [12] | herbicidal effect rating, P: chickweed [13] | further results |
| --- | --- | --- | --- | --- | --- | --- | --- | --- | --- | --- | --- | --- | --- | --- | --- | --- | --- | --- | --- | --- |
| Cc1nn(C)c(=O)c(-c2c(-c3ccc(OC(F)F)cc3)sc3ccccc23)c1O [1-201] | 0 (Herbicidal rate of 5% or less (almost no effect)) | 3 (Herbicidal rate of 40% or more and less than 70%) | 5 (Herbicidal rate of 90% or more (almost completely withered)) | 5 (Herbicidal rate of 90% or more (almost completely withered)) | 5 (Herbicidal rate of 90% or more (almost completely withered)) | 2 (Herbicidal rate of 20% or more and less than 40%) | 5 (Herbicidal rate of 90% or more (almost completely withered)) | 4 (Herbicidal rate of 70% or more and less than 90%) | 5 (Herbicidal rate of 90% or more (almost completely withered)) | 5 (Herbicidal rate of 90% or more (almost completely withered)) |  |  |  |  |  |  |  |  |  | F: southern crabgrass, herbicidal effect rating ([5]; AAH 320 g/ha): 2 (Herbicidal rate of 20% or more and less than 40%); G: green foxtail, herbicidal effect rating ([6]; AAH 320 g/ha): 5 (Herbicidal rate of 90% or more (almost completely withered)); H: barnyard grass, herbicidal effect rating ([7]; AAH 320 g/ha): 5 (Herbicidal rate of 90% or more (almost completely withered)); I: wild oat, herbicidal effect rating ([8]; AAH 320 g/ha): 0 (Herbicidal rate of 5% or less (almost no effect)); K: Italian ryegrass, herbicidal effect rating ([9]; AAH 320 g/ha): 4 (Herbicidal rate of 70% or more and less than 90%); M: velvetleaf, herbicidal effect rating ([10]; AAH 320 g/ha): 3 (Herbicidal rate of 40% or more and less than 70%); N: redroot pigweed, herbicidal effect rating ([11]; AAH 320 g/ha): 5 (Herbicidal rate of 90% or more (almost completely withered)); O: lambsquarters, herbicidal effect rating ([12]; AAH 320 g/ha): 5 (Herbicidal rate of 90% or more (almost completely withered)); P: chickweed, herbicidal effect rating ([13]; AAH 320 g/ha): 4 (Herbicidal rate of 70% or more and less than 90%); effect on blackgrass (J) ([16]; 3 weeks after application): 4 (Herbicidal rate of 70% or more and less than 90%) |
| Cc1nn(C)c(=O)c(-c2c(-c3ccccc3OC(F)(F)F)sc3ccc(F)cc23)c1O [2-043] | 0 (Herbicidal rate of 5% or less (almost no effect)) | 2 (Herbicidal rate of 20% or more and less than 40%) | 5 (Herbicidal rate of 90% or more (almost completely withered)) | 5 (Herbicidal rate of 90% or more (almost completely withered)) | 5 (Herbicidal rate of 90% or more (almost completely withered)) | 2 (Herbicidal rate of 20% or more and less than 40%) | 0 (Herbicidal rate of 5% or less (almost no effect)) | 3 (Herbicidal rate of 40% or more and less than 70%) | 5 (Herbicidal rate of 90% or more (almost completely withered)) | 5 (Herbicidal rate of 90% or more (almost completely withered)) | 5 (Herbicidal rate of 90% or more (almost completely withered)) | 5 (Herbicidal rate of 90% or more (almost completely withered)) | 4 (Herbicidal rate of 70% or more and less than 90%) | 0 (Herbicidal rate of 5% or less (almost no effect)) | 0 (Herbicidal rate of 5% or less (almost no effect)) | 3 (Herbicidal rate of 40% or more and less than 70%) | 5 (Herbicidal rate of 90% or more (almost completely withered)) | 5 (Herbicidal rate of 90% or more (almost completely withered)) | 1 (Herbicidal rate of 5% or more and less than 20%) |  |
| COc1cc(F)ccc1-c1sc2ccc(Cl)cc2c1-c1c(O)c(C)nn(C)c1=O [Compound No. 2-095, 4-(5-chloro-2-(4-fluoro-2-methoxyphenyl)benzo[b]thiophen-3-yl)-5-hydroxy-2,6-dimethylpyridazin-3(2H)-one] |  |  | 5 (Herbicidal rate of 90% or more (almost completely withered)) | 5 (Herbicidal rate of 90% or more (almost completely withered)) |  |  |  |  |  |  | 3 (Herbicidal rate of 40% or more and less than 70%) | 4 (Herbicidal rate of 70% or more and less than 90%) | 4 (Herbicidal rate of 70% or more and less than 90%) | 0 (Herbicidal rate of 5% or less (almost no effect)) | 0 (Herbicidal rate of 5% or less (almost no effect)) | 0 (Herbicidal rate of 5% or less (almost no effect)) | 4 (Herbicidal rate of 70% or more and less than 90%) | 5 (Herbicidal rate of 90% or more (almost completely withered)) | 3 (Herbicidal rate of 40% or more and less than 70%) | herbicidal effect on G: green foxtail [14, 23]: 5 (Herbicidal rate of 90% or more (almost completely withered)); herbicidal effect on I: wild oat [15, 23]: 4 (Herbicidal rate of 70% or more and less than 90%); herbicidal effect on J: blackgrass [16, 23]: 4 (Herbicidal rate of 70% or more and less than 90%); herbicidal effect on K: Italian ryegrass [17, 23]: 3 (Herbicidal rate of 40% or more and less than 70%); herbicidal effect on L: windgrass [18, 23]: 5 (Herbicidal rate of 90% or more (almost completely withered)); herbicidal effect on M: velvetleaf [19, 23]: 5 (Herbicidal rate of 90% or more (almost completely withered)); herbicidal effect on N: redroot pigweed [21]: 5 (Herbicidal rate of 90% or more (almost completely withered)); herbicidal effect on P: chickweed [22]: 5 (Herbicidal rate of 90% or more (almost completely withered)); herbicidal effect on R: persian speedwell [20, 23]: 5 (Herbicidal rate of 90% or more (almost completely withered)) |
